# Experimental data from paper PMC7168327, “Designed Antimicrobial Peptides for Topical Treatment of Antibiotic Resistant Acne Vulgaris” (Antibiotics, 2020).
# Bridge positions count the residues as written; N and C are the ends. Peptide text beside a SMILES is read from it.
# What was measured:
# [1] = test system: bioluminescent human immortalized keratinocytes (HaCaT); assay: Mammalian cytotoxicity, bioluminescent human keratinocytes; format: cell-based; conditions: bioluminescent HaCaT
# Experimental: (§1) Noninvasive and real-time monitoring of mammalian cytotoxicity to assess the potential skin toxicity of the dAMPs was evaluated using bioluminescent human immortalized keratinocytes (HaCaT, AddexBio, San Diego, CA, USA). The bioluminescent variant of HaCaT was constructed by transfection with a luciferase gene (RediFect Red-Fluc-Puromycin, Cat# CL596002). Keratinocytes (1 × 10^4 cells, 100 μL) were plated in 96-well black-walled plates. The candidate dAMPs were 2-fold serially diluted from 1024 µg/mL in growth medium supplemented with 150 µg/mL D-luciferin. Each concentration was performed in triplicate, with the final volume being 200 μL. Imaging was performed at select times (0, 15, and 30 min and 1, 3, 5, and 8 h) after the addition of the dAMP, and compared to concurrently run vehicle-control, using an IVIS Lumina imaging system (Caliper Life Sciences, Inc., Hopkinton, MA, USA). For imaging, the 96-well plate was positioned on the stage (12.5-cm field of view), with an open emission filter, binning of 4, and f-stop 1 and a 1-min exposure time. Data analysis was performed using the Living Image software program (version 4.3, Caliper Life Sciences, Inc.). The dAMP concentrations required to kill 10% and 50% of keratinocytes were determined using GraphPad Prism 7 (GraphPad Software, San Diego, CA, USA).
# [2] = test system: C. acnes HL043PA2 compared to human keratinocytes; format: cell-based
# Experimental: In evaluating the clinical utility of each of the candidate dAMPs for C. acnes treatment, the Therapeutic Index was determined. The Therapeutic Index is defined as the ratio of concentration at which the dAMP is active against the prokaryotic C. acnes pathogen without inducing cytotoxic damage to the surrounding mammalian cells. The EC10 and EC50 doses, defined as the concentrations required to kill 10% and 50% respectively of human keratinocytes following 8 h incubation with each of the Riptide dAMPs, are tabulated and graphed in Table 2 and Figure 3, respectively. The larger the Therapeutic Index, the greater the specificity of the dAMP for destroying C. acnes cells.
# Single colonies were inoculated in Reinforced Clostridium Medium (RCM) broth supplemented with sodium thioglycolate and incubated at 37 °C, with shaking at 200 rpm, for 2 or 3 days to reach logarithmic growth (OD600nm = 1.0). Each C. acnes (1 × 10^6 CFU per mL) was incubated with dAMP or clindamycin at two-fold serial dilutions (0.5–32 μg per mL) in RCM on a 96-well microplate for 48 h. Three replicas were included for each test article concentration. Bacterial growth was measured by optical density at 600 nm to determine the MIC for each dAMP applied.
# as §1
smiles,measurement,setting,value
"CC[C@H](C)[C@@H]1NC(=O)CNC(=O)[C@H](CCCCN)NC(=O)[C@H](Cc2ccc(O)cc2)NC(=O)[C@@H]2CSSC[C@H](NC1=O)C(=O)N[C@@H](Cc1ccc(O)cc1)C(=O)N[C@@H](CCCCN)C(=O)N[C@@H](CCCCN)C(=O)N[C@H](C(=O)N[C@@H](CCCCN)C(N)=O)CSSC[C@H](NC(=O)[C@H](Cc1c[nH]c3ccccc13)NC(=O)[C@@H](N)CCCNC(=N)N)C(=O)N[C@@H](Cc1ccccc1)C(=O)N[C@@H](CCCCN)C(=O)N[C@@H](C(C)C)C(=O)N2 [RP556] (H-RWCFKVCYKGICYKKCK-NH2; disulfide 3-16, 7-12)",viability of human keratinocytes,[1]; 8 h incubation at 256 μg/mL,greater than 80%
same,"EC10, concentration required to kill 10% of human keratinocytes","[1]; 1 × 10^4 cells/well, 8 h incubation, 2-fold dilutions from 1024 µg/mL, triplicate, IVIS imaging, GraphPad Prism 7",276 µg/mL
same,Therapeutic Index (EC10 / MIC),[2]; keratinocyte EC10 (8 h) versus MIC against HL043PA2 C. acnes,70
same,Therapeutic Index (EC50 / MIC),[2]; keratinocyte EC50 (8 h) versus MIC against HL043PA2 C. acnes,130
